Here are results for three compounds from patent publication US6218396A, “Substituted pyridino arylpiperazines useful in the treatment of benign prostatic hyperplasia” (Orth-McNeil Pharmaceutical, Inc., priority 1999, dated 2001).

Experiment [1] concerns the target T1, α1d-AR (Homo sapiens, UniProt P25100).
T1 construct: expressed in transfected cells; host or cells: COS cells (pcDNA3, transient DEAE-dextran transfection; membranes)
T1 sequence (P25100 1-572): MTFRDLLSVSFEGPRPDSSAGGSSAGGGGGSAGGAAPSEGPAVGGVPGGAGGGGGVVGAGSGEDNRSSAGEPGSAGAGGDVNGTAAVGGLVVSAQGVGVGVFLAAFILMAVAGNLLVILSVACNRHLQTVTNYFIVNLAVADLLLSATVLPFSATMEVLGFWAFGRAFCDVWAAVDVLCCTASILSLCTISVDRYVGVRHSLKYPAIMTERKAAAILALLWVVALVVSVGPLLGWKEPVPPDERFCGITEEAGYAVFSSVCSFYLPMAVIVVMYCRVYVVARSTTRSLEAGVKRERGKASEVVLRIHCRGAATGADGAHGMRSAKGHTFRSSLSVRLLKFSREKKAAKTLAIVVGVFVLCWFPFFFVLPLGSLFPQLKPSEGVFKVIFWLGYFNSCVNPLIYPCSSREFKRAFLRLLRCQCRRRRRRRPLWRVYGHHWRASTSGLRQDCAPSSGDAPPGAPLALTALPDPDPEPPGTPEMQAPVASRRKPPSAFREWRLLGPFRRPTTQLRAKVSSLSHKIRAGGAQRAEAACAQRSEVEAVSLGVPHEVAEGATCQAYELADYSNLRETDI
The experiment can be described thus: receptor binding assay, [125I]-HEAT, membranes of COS cells expressing α1d-AR. The settings on record: [125I]-HEAT 50 pM, human α1d-AR in COS cell membranes; unit 'nanomolar'. An excerpt: (§1) The DNA sequences of the three cloned human α1-AR subtypes have been published. […] We used published DNA sequence information to design primers for use in RT-PCR amplification of each subtype to obtain cloned cDNAs. Human poly A+ RNA was obtained from commercially available sources and included hippocampus and prostate samples, sources which have been cited in the literature. For the primary screen a radio ligand binding assay was used which employed membrane preparations from cells expressing the individual cloned receptor cDNAs. Radiolabeled ligands with binding activity on all three subtypes (non-selective) are commercially available ([125I]-HEAT, [3H]-prazosin).
(§2) Each α1 receptor subtype was cloned from poly A+ RNA by the standard method of reverse transcription-polymerase chain reaction (RT-PCR). The following sources of polyA+ RNA were used for the cloning of the α1 receptor subtypes: α1a -AR, human hippocampus and prostate, α1b -AR, human hippocampus, α1d -AR, human hippocampus. The resulting cDNAs were cloned into the pcDNA3 mammalian expression vector (Invitrogen Corp., San Diego Calif.). Each DNA was sequenced for verification and to detect any possible mutations introduced during the amplification process. Any deviation in sequence from the published consensus for each receptor subtype was corrected by site-directed mutagenesis.
(§3) The three α1-AR subtypes (a, b, d) were transfected into COS cells using a standard DEAE-dextran procedure with a chloroquine shock. In this procedure, each tissue culture dish (100 mm) was inoculated with 3.5×10^6 cells and transfected with 10 μg of DNA. Approximately 72 hours post-transfection, the cells were harvested and COS membranes were prepared. Transfected COS cells from 25 plates (100 mm) were scraped and suspended in 15 mL of TE buffer (50 mM Tris-HCl, 5 mM EDTA, pH7.4). The suspension was disrupted with a homogenizer. It was then centrifuged at 1000×g for 10 minutes at […]. The supernatant was centrifuged at 34,500×g for 20 minutes at 4° C. The pellet was resuspended in 5 mL TNE buffer (50 mM Tris-HCl, 5 mM EDTA, 150 mM NaCl, pH7.4). The resulting membrane preparation was aliquoted and stored at -70° C. The protein concentration was determined following membrane solubilization with TritonX-100.
(§4) The ability of each compound to bind to each of the α1-AR subtypes was assessed in a receptor binding assay. [125I]-HEAT, a non-selective α1-AR ligand, was used as the radiolabeled ligand. Each well of a 96-well plate received: 140 μL TNE, 25 μL [125I]-HEAT diluted in TNE (50,000 cpm; final concentration 50 pM), 10 μL test compound diluted in DMSO (final concentration 1 pM-10 μM), […] COS cell membrane preparation expressing one of the three α1-AR subtypes (0.05-0.2 mg membrane protein). The plate was incubated for 1 hour at room temperature and the reaction mixtures were filtered through a Packard GF/C Unifilter filter plate. The filter plate was dried for 1 hour in a vacuum oven. Scintillation fluid ([…]) was added to each well, and the filter plate was counted in a Packard Topcount scintillation counter. Data was analyzed using GraphPad Prism software.

In experiment [2] the target is T2, α1b-AR (Homo sapiens, UniProt P35368).
T2 construct: expressed in transfected cells; host or cells: COS cells (pcDNA3, transient DEAE-dextran transfection; membranes)
T2 sequence (P35368 1-520): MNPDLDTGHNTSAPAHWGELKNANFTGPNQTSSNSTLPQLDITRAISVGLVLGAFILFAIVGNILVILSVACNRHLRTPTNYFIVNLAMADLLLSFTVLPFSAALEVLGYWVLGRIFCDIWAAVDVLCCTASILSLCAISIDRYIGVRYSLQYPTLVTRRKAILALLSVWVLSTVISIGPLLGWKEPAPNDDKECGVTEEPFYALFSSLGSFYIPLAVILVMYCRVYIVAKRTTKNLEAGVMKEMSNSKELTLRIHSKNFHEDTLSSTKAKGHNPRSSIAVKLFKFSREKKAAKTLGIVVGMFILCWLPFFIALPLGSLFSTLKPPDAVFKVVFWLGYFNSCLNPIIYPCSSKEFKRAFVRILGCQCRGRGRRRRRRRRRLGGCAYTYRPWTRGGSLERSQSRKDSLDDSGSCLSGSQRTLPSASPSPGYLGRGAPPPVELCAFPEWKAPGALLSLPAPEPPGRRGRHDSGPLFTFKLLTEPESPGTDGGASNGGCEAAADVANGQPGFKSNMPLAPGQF
The experiment can be described thus: receptor binding assay, [125I]-HEAT, membranes of COS cells expressing α1b-AR. The following applies: [125I]-HEAT 50 pM, human α1b-AR in COS cell membranes; unit 'nanomolar'.
Text: as §1, §2, §3, §4

Experiment [3] deals with T3, α1a-AR (Homo sapiens, UniProt P35348).
T3 construct: expressed in transfected cells; host or cells: COS cells (pcDNA3, transient DEAE-dextran transfection; membranes)
T3 sequence (P35348 1-466): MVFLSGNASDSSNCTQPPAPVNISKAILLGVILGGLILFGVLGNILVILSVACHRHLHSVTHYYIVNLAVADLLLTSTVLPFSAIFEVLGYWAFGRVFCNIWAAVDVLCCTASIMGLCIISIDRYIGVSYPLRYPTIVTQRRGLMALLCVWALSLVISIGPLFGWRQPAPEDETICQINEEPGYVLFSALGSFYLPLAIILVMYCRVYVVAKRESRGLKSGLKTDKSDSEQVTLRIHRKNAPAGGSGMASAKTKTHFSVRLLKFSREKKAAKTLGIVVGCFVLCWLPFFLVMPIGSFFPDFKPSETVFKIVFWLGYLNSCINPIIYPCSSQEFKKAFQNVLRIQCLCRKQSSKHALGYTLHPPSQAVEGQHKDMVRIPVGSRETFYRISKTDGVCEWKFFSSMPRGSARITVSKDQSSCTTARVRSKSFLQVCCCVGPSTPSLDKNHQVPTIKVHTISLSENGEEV
Description: receptor binding assay, [125I]-HEAT, membranes of COS cells expressing α1a-AR. The settings on record: [125I]-HEAT 50 pM, human α1a-AR in COS cell membranes; unit 'nanomolar'.
Text: as §1, §2, §3, §4

In experiment [4] the test system is symptomatic BPH. The following applies: human, in vivo; cited from earlier work.
The test system of experiment [5] is 5α-reductase. The settings on record: cited from earlier work.

pIC50: −log10 of the molar value.

By pIC50 is commonly meant the IC50 on a negative log10 scale, so that one unit is a factor of ten. Read a low pIC50 as a large IC50. Take `CC(C)Oc1ccccc1N1CCN(CC(O)CNC(=O)c2cccnc2Oc2ccc(Cl)cc2)CC1` (stereo not shown) [Compound 42]: the pIC50 was 7.13 in experiment [1], 6.08 in experiment [2] and 9.00 in experiment [3].
Take `CC(C)Oc1ccccc1N1CCN(CC(O)CNC(=O)c2cccnc2Sc2ccccc2)CC1` (stereo not shown) [Compound 43]: the figures for the pIC50 in experiment [1], in experiment [2] and in experiment [3] were 7.15, 5.91 and 8.70, respectively.
In the case of `CC(C)(C)NC(=O)[C@H]1CC[C@H]2[C@@H]3CC[C@H]4NC(=O)C=C[C@]4(C)[C@H]3CC[C@]12C` [finasteride], in experiment [4], the “effectiveness in treating symptomatic BPH (in words)” value is given as “only moderately effective”; the “serum and tissue concentrations of dihydrotestosterone (in words)” value is listed as “marked decrease”; the “time for effects to become evident” value is 6-12 months. The “inhibition of 5α-reductase (in words)” value in experiment [5] is given as “potent 5α-reductase inhibitor”.
